Values belong to the compound of their own block, whether it stands above or below them.
What was measured:
hippocampal slice = assay: Spontaneous interictal-like bursts in hippocampal slices with modified bathing medium; type: cell-based, rat
hippocampal tissue slice = assay: Stimulation-evoked after discharge and intrinsic optical signals in hippocampal slices (Example 10); type: cell-based, rat
Procedure: Sprague-Dawley rats (male and female; 25 to 35 days old) were prepared as described in Aghajanian, A. K. and Rasmussen, K., Synapse 31:331, 1989; and Buckmaster, P. S., Strowbridge, B. W., Schwartzdroin, P. A., J. Neurophysiol. 70:1281, 1993. In most hippocampal slice experiments, simultaneous extracellular field electrode recordings were obtained from CA1 and CA3 areas. For stimulation-evoked after discharge (13 slices, 8 animals), the concentration of Mg^2+ in the bathing medium was reduced to 0.9 mM. A bipolar tungsten stimulating electrode was placed on the Schaffer collaterals to evoke synaptically driven field responses in CA1; stimuli consisted to 100 to 300-μs-duration pulses at an intensity of four times population-spike threshold. After discharges were evoked by a 2-[…] of such stimuli delivered at 60 Hz. […] In all treatments, perfusion with furosemide-containing medium was begun after a consistent level of bursting had been established.
For imaging of intrinsic optical signals, the tissue was illuminated with a beam of white light (tungsten filament light and lens system; Dedotec USA, Lodi, N.J.) directed through the microscope condenser. The light was controlled and regulated (power supply: Lambda Electronics, Melville, N.Y.) to minimize fluctuations and filtered (695 nm long-pass) so that the slice was transilluminated with long wavelengths (red). Image frames were acquired with a charge-coupled device camera (Dage-MTI) at 30 Hz and were digitized at 8 bits with a spatial resolution of 512 by 480 pixels by means of an Imaging Technology Series 151 imaging system; gains and offsets of the camera-control site and the analog-to-digital board were adjusted to optimize the sensitivity of the system. Imaging hardware was controlled by a 486-PC-compatible computer running software written by D. Hochman and developed with commercially available software tools (Microsoft's C/C++ Compiler and Imaging Technology's ITEX library). To increase signal-to-noise ratio, an averaged image was composed from 16 individual image-frames, integrated over 0.5 s and averaged together. An experimental series typically involved the continuous acquisition of a series of averaged images over a several minute time period; at least 10 of these averaged images were acquired as control images before stimulation. Pseudocolored images were calculated by subtracting the first control image from subsequently acquired images and assigned a color lookup table to the pixel values. For these images, usually a linear low-pass filter was used to remove high-frequency noise and a linear-histogram stretch was used to map the pixel values over the dynamic range of the system. All operations on these images were linear so that quantitative information was preserved.

glioma [1] = settings: rat, in vivo
Text: This example illustrates a series of experiments using a rat glioma model and optical detection techniques through an intact skull to investigate whether the inventive method and inventive device could function in to image tumor tissue through an intact skull and through intact skin prior to or after surgery. Far red wavelengths of emr are known to penetrate through bone and skin. Imaging of tumor tissue was attempted through the intact skull of the rat. The extent of tumor identified was not as accurate as with the cortex exposed, however, the area lying beneath the skull with tumor tissue was easily identified, localized and continued to concentrate dye after several minutes.
An image was taken for a grey-scale image of the cranial surface of a rat. The sagital suture runs down the center of the image. Tumor cells had been injected into the left side some days earlier so that this animal had developed a glioma on the left hemisphere of its brain. The right hemisphere was normal. A site 1 laid over the suspect region of brain tumor, and a site 2 laid over normal tissue. A difference image was acquired at 1 second after indocyanine green dye had been intravenously injected into the animal. The region containing tumor tissue becomes immediately visible through the intact cranium. […] A concentration of dye in the center of this difference image was observed and depicted dye circulating in the sagital sinus.
The optical changes were determined by the average optical change in a site placed directly over the tumor and over the normal hemisphere. The increase in absorption is a function of the concentration of dye in the tissue at a particular time. The graph labeled “extracranial tumor” is a plot of the dynamics of the absorption changes from the tumor area. The graph labeled “extracranial: normal” is a plot of the dynamics of the absorption change from the non-tumor area.

glioma [2] = tested on: glioma; parameters: species or system rat; settings: in vivo
Text: This example illustrates a series of experiments using a rat glioma model intraoperatively to investigate whether the inventive method and inventive device could function in an operating room setting to provide real time information to the surgeon regarding resection of all tumor tissue. The rat glioma model is a standard predictive model and was used to delineate dye uptake, clearance and overall parameters of optical imaging that result in the best images. The advantages of this model are the ability to consistently get reproducible tumors for imaging studies and to be able to rescect tumor under an operating microscope and still find residual tumor with the inventive optical imaging. A disadvantage of this model is the more sarcoma-like appearance of the tumor and a lesser degree of vascularity compared to human gliomas.
Briefly, the rat glioma model uses an ethylnitrosourea-induced F-344 rat tumor line developed from a clonal population of a spinal malignant astrocytoma. […] The glioma cells were maintained in Weymouth's medium supplemented with 10% fetal calf serum. Viable cells (5×10^4) were trypsinized from a monolayer culture and implanted stereotaxically into the right cerebral hemisphere of 30 syngeneic female rats, each weighing 140-160 g. The stereotaxic coordinates for right frontal lobe implantation were 4.5 mm anterior to the frontal zero plane, 3 mm right from the midline and 6 mm deep. The rats were anesthetized for implantation. The heads were shaved and scalps opened, and a 1 mm burr hole made at the appropriate coordinates. The cells were injected through a 27 gauge needle, the needle left in place for 30 sec post injection and the hole was covered with bone wax: The scalp was sutured and the animals observed for 3-4 hrs until they returned to normal activity and feeding. The animals were used !I 0-14 days after tumor implantation. In this model, animals begin to show clinical symptoms from the tumor by 16-19 days, such as decreased activity and feeding, hemiparesis and eventually succumb between 19-27 days from mass effects due to tumor expansion.
Fourteen animals underwent complete study, including imaging before and after resection of the tumor. For study, the animals were anesthetized with 2% isoflurane, and the femoral vein canulated for administration of the dye. Anesthesia was maintained with a chloralsoe (50 mg/kg administered ip) and urethane (160 mg/kg administered ip). The animals were placed in a stereotaxic holder. Imaging studies were then carried out before or after removal of the cranium. The tumor typically occupied the anterior one half to two thirds of the right hemisphere exposure. […]

[3] = tested on: low grade human CNS tumor; assay: Optical imaging of dye perfusion in a low grade human CNS tumor (Example 3); type: in vivo
Procedure: This example illustrates the use of a contrast enhancing agent, indocyanine green, to identify and spatially localize a low grade human CNS tumor. An MRI scan was conducted before the operation. Additionally, the patient was investigated for tumor tissue using the apparatus described according to the invention and specifically described above.
The area of interest was evenly illuminated by a fiber optic light source with the radiation passing through a beam splitter, controlled by a D.C. regulated power supply (Lambda, Inc.) and passed through a 695 nm long pass filter. Images were acquired with a CCD camera (COHU 6500) fitted to the operating microscope with a specially modified cineadaptor. The cortex was stabilized with a glass footplate. Images were acquired at 30 Hz and digitized at 8 bits (512×480 pixels, using an Imaging Technology, Inc. Series 151 system, Woburn, Mass.). Geometrical transformations were applied to images to compensate for small amounts of patient motion (Wohlberg, Digital Imaging Warping, IEEE Computer Society: Los Alamitos, Calif., 1988). […] Raw data (i.e., no digital enhancement) were used for determining the average optical change in specified regions (average size site was 30×30 pixels or 150-250 um^2). For pseudocolor images, a linear low pass filter removed high frequency noise and linear histogram transformations were applied. Noise was defined as the standard deviation of fluctuations in sequentially acquired control images as 0.003-0.009.
An averaged control image was obtained of the particular cortical surface area of interest. Indocyanine green dye was administered into a peripheral intravenous catheter as a bolus at Time 0. Lettered labels were placed upon the brain by the surgeon overlay the tumor as identified intraoperatively by ultrasound. However, tumors of this type and grade are notoriously difficult to distinguish from normal tissue once the surgical removal of the tumor has begun. Difference images were taken approximately 15 seconds after intravenous injection of dye (indocyanine green at 1 mg/kg), and 30 seconds after dye administration. […] Therefore, it is possible to image even low grade tumors with this apparatus. Furthermore, it is possible to distinguish, intraoperatively, low grade tumor tissue from surrounding normal tissue.

[4] = tested on: malignant CNS tumor (glioblastoma; astrocytoma, Grade IV); assay: Optical imaging of dye perfusion in a highly malignant CNS tumor (Example 4); type: in vivo, human
Text: This example illustrates the image of a highly malignant CNS tumor (glioblastoma). A patient was imaged in a neurosurgical procedure as described in Example 1. A series of images were taken from the cortex of a patient with a malignant CNS tumor (glioblastoma; astrocytoma, Grade IV). […] A difference image was obtained at 15 seconds after intravenous injection of indocyanine green, showing the dynamics of dye perfusion in the first seconds in malignant tissue are […] to those in the first few seconds of benign tumor tissue. […] Therefore, it is possible with this device to identify malignant tumor tissue, distinguish intraoperatively between normal and malignant tumor tissue, and to distinguish between the various grades of tumor (e.g., normal vs. benign vs. malignant). Thus, it is possible to not only image the location of tumor tissue, but also to grade the tumor with more malignant tumors retaining dye for a longer period of time than a lower grade tumor.

[5] = 2.5 mM in medium, 20 minutes of perfusion, stimulation at 60 Hz

SMILES: Nc1ccncc1 [4-AP]
spontaneous interictal-like bursts, average (hippocampal slice; 200 to 300 μM in bathing medium, 4 slices, 2 animals): 33 bursts/min

SMILES: [K+] [K^+]
spontaneous interictal-like bursts, average (hippocampal slice; 10 mM in bathing medium, 6 slices, 4 animals): 81 bursts/min

SMILES: CN1CCc2cc3c(cc2[C@H]1[C@@H]1OC(=O)c2c1ccc1c2OCO1)OCO3 [bicuculine]
spontaneous interictal-like bursts, average (hippocampal slice; 50 to 100 in bathing medium, 4 slices, 3 animals): 14 bursts/min

SMILES: NS(=O)(=O)c1cc(C(=O)O)c(NCc2ccco2)cc1Cl [furosemide]
field response to the test pulse (hippocampal tissue slice; 2.5 mM in medium, 20 minutes of perfusion): hyperexcitable field response (multiple population spikes)
electrical after discharge (epileptiform) activity (hippocampal tissue slice; [5]): blocks
stimulation-evoked optical changes (intrinsic optical signal) (hippocampal tissue slice; [5]): blocks
response after washout (hippocampal tissue slice; 45 minutes of perfusion with normal bathing medium): restoration of the initial response pattern

plateau phase optical change, normal brain (glioma [1]; 60 seconds): 3.1±0.7%
plateau phase optical change, tumor tissue (glioma [1]; 60 seconds): 40.5±9.6%
peak optical change, normal brain imaged through the cranium (glioma [1]; iv): 7.8±2.3%
peak optical change, tumor imaged through the cranium (glioma [1]; iv): 13.1±3.9%
duration of prolonged increase in the optical signal in the tumor (glioma [2]; female, F-344, rat): > 2 min
time after dye injection at which optical signals began to change (glioma [2]; female, F-344, rat): 2 to 3 s
dye in tumor tissue versus normal tissue (glioma [2]; rat): still collecting in tumor tissue
dye in the cerebrospinal fluid after administration (glioma [2]; rat, iv): No dye was found
tissue staining in difference images, tumor tissue ([3]; 1 mg/kg intravenous bolus, approximately 15 and 30 seconds after dye administration): first tissue staining
time at which all tissue (both normal and abnormal) showed staining ([3]; 1 mg/kg intravenous, low grade tumor): 45 s
clearance of dye from the area of interest ([3]; five minutes after dye administration, low grade tumor): complete clearance
entry into low grade tumor tissue compared to normal brain tissue ([3]; intravenous): faster than normal brain tissue
intensity in malignant tissue compared to normal tissue ([4]; 30 seconds after intravenous injection): even more intense
retention of dye in malignant tumor tissue compared to benign tumor tissue ([4]; 1 minute and 10 minutes after dye injection): retained significantly longer
SMILES: CC1(C)C(/C=C/C=C/C=C/C=C2\N(CCCCS(=O)(=O)O)c3ccc4ccccc4c3C2(C)C)=[N+](CCCCS(=O)(=O)[O-])c2ccc3ccccc3c21 [indocyanine green]

Reference: patent US20030236458A1, “Spectroscopic systems and methods for detecting tissue properties” (BIOPHYSICA LLC, priority 1999, published 2003)
